Measurements taken from patent publication US10335400B2, “Treatment of tauopathies with mGluR5 antagonists” (priority 2014, dated 2019).
“Also recorded” adds a separate entry of the source.

Legend:
PP2A = PP2A activity (phosphatase ELISA) in rat brain slices; assay type: cell-based; details: 30 min pretreatment, BMAA 1 mM 2 h, rat brain slices
Experimental: (§1) Male Wistar rats (Charles River Laboratories), 2-3 months old, were anesthetized by i.p. injection with 50 mg/kg Nembutal. The animals were decapitated when deeply anesthetized. The brains were removed immediately and cooled in ice-cold (4° C.) oxygenated artificial cerebrospinal fluid (aCSF) consisting of 126 mM NaCl, 3.5 mM KCl, 1.2 mM NaH2PO4, 1.3 mM MgCl2, 2 mM CaCl2, 11 mM D(+) glucose, and 25 mM NaHCO3 (pH 7.4) for 7-8 min. Each brain then was divided sagittally, and 400-μm-thick coronal slices were made with a Camden Vibraslicer (WP, Inc.). The slices were transferred into a chamber containing the oxygenated aCSF and were incubated at 33° C. for 2 h in the presence or absence of 1 mM, β-N ? methylamino-L-alanine (BMAA) dissolved in 10 mM NaHCO3 (Sigma). The oxygenation of the aCSF was carried out by bubbling the solution with a mixture of 95% O2 and 5% CO2 during the entire procedure. At the end of incubation, the brain slices were homogenized with homogenizing buffer [50 mM Tris·HCl (pH 7.4), 8.5% (wt/vol) sucrose, 2 mM EDTA, 2 mM EGTA, 10 mM (3-mercaptoethanol, 5 mM benzamidine, 0.5 mM 4-(2-Aminoethyl) benzenesulfonyl fluoride hydrochloride (AEBSF), 4 μg/mL pepstatin A, and 10 μg/mL each of aprotinin and leupepin] at a ratio of 9.0 mL buffer/1.0 g tissue slices. The homogenates were divided into two parts. One part was centrifuged at 16,000×g for 10 min, and the resulting supernatant was used to assay protein phosphatase 2A (PP2A) activity. Into the other half, an equal volume of phosphatase-inhibitor mixture (20 mM 3-glycerophosphate, 2 mM Na3VO4, and 100 mM NaF) was added immediately, and the samples were used for Western blots.

tau = assay: Tau phosphorylation (Western blots) in metabolically active rat brain slices; assay type: cell-based; details: rat brain slices; for BMAA-induced tau hyperphosphorylation at the 12E8 site: 30 min preincubation
Experimental: as §1
Protein was fractionated by 10% SDS/PAGE, transferred to PVDF membrane, and then blocked with 5% skim milk for 1 h at room temperature. The membrane was probed with anti-IPP2A (5G6, 1:1, 500) (7), anti-I2P2A (10E7, 1:1, 600) (7), anti-tau ˜92e; 1:5,000) (8), anti-tau (R134d; 1:5 000) (9), anti-tau pSer^262/^356 (12E8; 1:500) (10, anti-tau pSer^199, anti-tau pThr^205, anti-tau pThr^212, and pSer^396 (1:1,000) (Biosource), anti-GAPDH (1:2,000) (Santa Cruz Biotechnology), anti-PP2Ac (1:10 000) (BD Transduction Lab), anti pY^307-PP2A and anti-DML^309-PP2A (1:1,000) (Millipore), anti-GSK-3(α/β), anti-pS^9-GSK-3 β, anti-ERK1/2, anti-pT^202/Y^204-ERK1/2, anti-MEK1/2, anti-p9^17/221-MEK1/2, anti-CAMKII, anti-pT^286-CAMKII, anti-p70 S6 kinase, anti-pT^389-p70 S6 kinase, anti-SAPK/JNK, and anti-pT^183/Y^185-SAPK/JNK (1:1,000) (Cell Signaling Technology). The membrane then was incubated with HRP-conjugated secondary antibody (Jackson ImmunoResearch). The protein bands were detected with the enhanced chemiluminescence reagents (Thermo Scientific). Band intensity was measured by Multi-Gauge V3 software (Fuji Photo Film).

mGluR5-PP2A complex = target: T1, mGluR5-PP2A complex (Mus musculus, UniProt Q3UVX5); assay: Coimmunoprecipitation of PP2Ac with mGluR5 in primary neurons; assay type: cell-based
T1 construct: endogenous in cells; host or cells: mouse primary hippocampal neuronal cultures
Experimental: Mouse hippocampal cell proteins were prepared with low-stringency lysis buffer [50 mM Hepes (pH 7.4), 10% (vol/vol) glycerol, 1.5 mM MgCl2, 5 mM NaF, 1 mM Na3VO4, 1 mM EDTA, 1 mM EGTA, 1% Nonidet P-40, 5 mM AEBSF, 10 μg/mL aprotinin, leupeptin, pepstatin] and were homogenized by several freeze-thaw cycles followed by water bath sonication. The homogenate was centrifuged at 14,000×g at 4° C. for 15 min. For transfection experiments with vector (DsRed) and with DsRed-PP2A catalytic subunit (PP2Ac), primary neurons were processed in a similar manner. The supernatants then were used for immunoprecipitation with mouse anti-PP2A (1D6; Millipore) followed by incubation with protein G-Sepharose (Thermo Scientific). The Western blots of immunoprecipitates were probed with rabbit anti-mGluR5 (Millipore) and rabbit anti-PP2Ac [R123d] (FIG. 55).

ERK1/2 = ERK1/2 phosphorylation in primary neurons treated with okadaic acid; assay type: cell-based, mouse; details: okadaic acid 10-100 nM, 30 min
Experimental: FIGS. 11A and 11B are images showing the inhibition of PP2A induces ERK1/2 phosphorylation. Primary neurons were treated with the PP2A inhibitor okadaic acid (OA, 10-100 nM) for 30 min and were processed for ERK1/2 analysis. (A) Representative Western blots showing phosphorylation of ERK1/2. (B) Quantitative analysis of pERK1/2 after normalization with total ERK1/2. Data are expressed as mean±SEM. *P<0.05; **P<0.01.
Protein was fractionated by 10% SDS/PAGE, transferred to PVDF membrane, and then blocked with 5% skim milk for 1 h at room temperature. […] The protein bands were detected with the enhanced chemiluminescence reagents (Thermo Scientific). Band intensity was measured by Multi-Gauge V3 software (Fuji Photo Film).

T1 sequence (Q3UVX5 19-1203, one chain of several): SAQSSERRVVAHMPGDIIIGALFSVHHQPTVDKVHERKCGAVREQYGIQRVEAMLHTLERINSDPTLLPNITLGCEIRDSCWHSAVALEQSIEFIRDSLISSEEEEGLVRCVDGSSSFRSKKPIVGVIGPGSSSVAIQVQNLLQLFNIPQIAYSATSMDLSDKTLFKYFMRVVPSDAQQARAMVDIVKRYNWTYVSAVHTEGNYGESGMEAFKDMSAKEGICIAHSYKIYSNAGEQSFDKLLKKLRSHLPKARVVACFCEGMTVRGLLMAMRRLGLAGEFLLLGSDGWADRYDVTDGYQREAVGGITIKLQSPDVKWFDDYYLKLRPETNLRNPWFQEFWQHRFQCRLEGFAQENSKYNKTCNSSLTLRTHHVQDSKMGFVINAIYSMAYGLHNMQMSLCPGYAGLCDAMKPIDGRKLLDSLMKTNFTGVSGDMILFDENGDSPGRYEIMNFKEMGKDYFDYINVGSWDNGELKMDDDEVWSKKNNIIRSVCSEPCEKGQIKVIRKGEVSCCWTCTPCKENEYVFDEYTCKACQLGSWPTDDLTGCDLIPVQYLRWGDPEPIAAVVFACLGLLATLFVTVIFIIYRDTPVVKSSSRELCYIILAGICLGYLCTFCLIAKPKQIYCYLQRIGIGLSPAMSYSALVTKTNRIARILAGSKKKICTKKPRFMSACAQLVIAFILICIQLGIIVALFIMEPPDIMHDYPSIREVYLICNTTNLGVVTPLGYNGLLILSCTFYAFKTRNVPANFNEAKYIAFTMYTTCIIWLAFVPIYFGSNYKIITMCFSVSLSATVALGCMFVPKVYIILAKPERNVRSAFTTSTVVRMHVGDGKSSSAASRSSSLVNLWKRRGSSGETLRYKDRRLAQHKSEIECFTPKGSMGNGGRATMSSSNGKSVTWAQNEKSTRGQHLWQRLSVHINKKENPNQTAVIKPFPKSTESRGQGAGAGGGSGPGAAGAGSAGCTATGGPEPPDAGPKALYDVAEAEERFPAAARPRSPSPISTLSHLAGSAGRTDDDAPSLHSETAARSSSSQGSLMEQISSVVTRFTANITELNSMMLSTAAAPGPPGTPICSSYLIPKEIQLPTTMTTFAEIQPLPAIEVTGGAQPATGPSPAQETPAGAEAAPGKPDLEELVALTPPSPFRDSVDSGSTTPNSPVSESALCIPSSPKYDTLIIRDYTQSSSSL

N#Cc1cc2c(cc1[N+](=O)[O-])=NC(=O)C(=O)N=2 [CNQX, 6-cyano-7-nitroquinoxaline-2,3-dione]
BMAA induced decrease in PP2A activity blocked by pretreatment (PP2A; CNQX 20 μM): not | BMAA-induced tau hyperphosphorylation at the 12E8 site (tau; CNQX 20 μM alone, BMAA 1 mM 2 h): no significant change

CCCCCCCCCCCCC/C=C/[C@@H](O)[C@@H](N)CO [DES, D-Erythro-S]
BMAA-induced tau hyperphosphorylation (tau; DES 15 nM pretreatment, BMAA 1 mM 2 h): blocked; also recorded: entirely prevented

Cc1cccc(C#Cc2ccccc2)n1 [MPEP, 2-methyl-6-(phenylethynyl)pyridine]
BMAA induced decrease in PP2A activity blocked by pretreatment (PP2A; MPEP 50 μM): blocked completely | BMAA-induced tau hyperphosphorylation at the 12E8 site (tau; 50 μM MPEP, BMAA 1 mM 2 h): significantly blocked | BMAA-induced dissociation of PP2A from mGluR5 (mGluR5-PP2A complex): completely blocked

CC(C)(C)n1nc(-c2ccc(Cl)cc2)c2c(N)ncnc21 [PP2]
BMAA-induced tau hyperphosphorylation (tau; PP2 10 μM, 30 min before BMAA): blocked; also recorded: significantly attenuated

C=C1[C@@H](O)[C@@H]2O[C@]3(CC[C@H](/C=C/[C@@H](C)[C@@H]4CC(C)=C[C@@]5(O[C@H](C[C@@](C)(O)C(=O)O)CC[C@H]5O)O4)O3)CC[C@H]2O[C@@H]1[C@@H](O)C[C@H](C)[C@H]1O[C@@]2(CCCCO2)CC[C@H]1C [okadaic acid]
ERK1/2 phosphorylation (ERK1/2): up-regulates
